Assay results taken from ChEMBL document CHEMBL1795287, “Efficient synthesis of 3-O-thia-cPA and preliminary analysis of its biological activity toward autotaxin” (Bioorg Med Chem Lett, 2011).

Tests used:
[1] = biological target: Autotaxin (Homo sapiens) (UniProt Q13822); test: Inhibition of human ATX catalytic activity in MDA-MB-231 cells using conditioned medium at 10 uM; assay type: cell-based
[2] = biological target: Autotaxin (Homo sapiens) (UniProt Q13822); test: Inhibition of human ATX catalytic activity in MDA-MB-231 cells using conditioned medium; assay type: cell-based

Compound | inhibition [1] [%] | inhibition [2]
CCCCCC/C=C\CCCCCCCC(=O)OCC1COP(=O)(O)C1 (stereo not given) | 66 | –
CCCCCCCC/C=C\CCCCCCCC(=O)OCC1COP(=O)(O)O1 (stereo not given) | 25 | –
CCCCCC/C=C\CCCCCCCC(=O)OCC1CSP(=O)(O)O1 (racemic) | 55 | Dose-dependent effect
CCCCCCCC/C=C\CCCCCCCC(=O)OCC1CSP(=O)(O)O1 (racemic) | 55 | Dose-dependent effect
CCCCCCCCCCCCCCCC(=O)OCC1CSP(=O)(O)O1 (racemic) | 55 | Dose-dependent effect
CCCCCCCCCCCCCCCCCC(=O)OCC1CSP(=O)(O)O1 (racemic) | 55 | Dose-dependent effect
